# Measured values: ChEMBL document CHEMBL1201862, “PubChem BioAssay data set” (2004)
#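 Test compounds were applied to cells in 96-well plates for 48 hours at 5 doses. GI50 is the concentration that inhibits growth by half.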 Calls of active or inactive are those of the source. No stated cut-off is given here; in the data, active = GI50 up to about 1.1 µM and inactive = higher.
# Legend:
# Assay in all cases: NCI anticancer screen, dose series, 48 h
# A549 = tested on: A549
# EKVX = tested on: EKVX
# HCT-116 = tested on: HCT-116
# HCT-15 = tested on: HCT-15
# IGROV-1 = tested on: IGROV-1
# KM-20L2 = tested on: KM-20L2
# KM12 = tested on: KM12
# M14 = tested on: M14
# MOLT-4 = tested on: MOLT-4
# Malme-3M = tested on: Malme-3M
# NCI-H226 = tested on: NCI-H226
# NCI-H522 = tested on: NCI-H522
# OVCAR-3 = tested on: OVCAR-3
# RPMI-8226 = tested on: RPMI-8226
# SF-539 = tested on: SF-539
# NCI-H23 = tested on: NCI-H23
# U-251 = tested on: U-251
# MCF7 = tested on: MCF7
# SK-MEL-5 = tested on: SK-MEL-5
# SR = tested on: SR
SMILES,GI50 (A549),GI50 (EKVX),GI50 (HCT-116),GI50 (HCT-15),GI50 (IGROV-1),GI50 (KM-20L2),GI50 (KM12),GI50 (M14),GI50 (MOLT-4),GI50 (Malme-3M),GI50 (NCI-H226),GI50 (NCI-H522),GI50 (OVCAR-3),GI50 (RPMI-8226),GI50 (SF-539),GI50 (NCI-H23),GI50 (U-251),GI50 (MCF7),GI50 (SK-MEL-5),GI50 (SR)
CN1CN(C(=O)N2CN(C)C(=O)N(C)C2)CN(C)C1=O,> 100 µM (inactive),> 100 µM (inactive),> 100 µM (inactive),> 100 µM,> 100 µM (inactive),> 100 µM (inactive),> 100 µM (inactive),> 100 µM (inactive),> 100 µM (inactive),> 100 µM (inactive),> 100 µM (inactive),> 100 µM (inactive),> 100 µM (inactive),> 100 µM (inactive),> 100 µM (inactive),,,,,
O=C(O)C12CC3CC(C1)C2C=C3P(=O)(O)O (stereo unspecified),,> 100 µM (inactive),> 100 µM (inactive),> 100 µM,> 100 µM (inactive),> 100 µM (inactive),> 100 µM (inactive),> 100 µM (inactive),> 100 µM (inactive),> 100 µM (inactive),> 100 µM (inactive),> 100 µM (inactive),> 100 µM (inactive),> 100 µM (inactive),,> 100 µM (inactive),> 100 µM (inactive),,,
CC(=O)OC1CC[C@@]2(C)C(=CC[C@@H]3[C@@H]2CC[C@]2(C)Nc4nn(S(C)(=O)=O)cc4C[C@@H]32)C1 (stereo partly specified),,,,24.2 µM,73.6 µM (inactive),,31.8 µM (inactive),20.7 µM (inactive),16.1 µM (inactive),27.3 µM (inactive),27.7 µM (inactive),35.2 µM (inactive),24.2 µM (inactive),30 µM (inactive),,35.1 µM (inactive),36.1 µM (inactive),16.6 µM (inactive),15.2 µM (inactive),36.4 µM (inactive)
COC(=O)C1=C(O)C(C(=O)OC)[C@@]2(O)[C@@H](C(=O)OC)[C@H](C)[C@@H](C)[C@@H]1[C@@H]2C(=O)OC (stereo partly specified),,52.8 µM (inactive),66.1 µM (inactive),41.5 µM,,,34.8 µM (inactive),67.5 µM (inactive),> 100 µM (inactive),83.2 µM (inactive),55.8 µM (inactive),26.9 µM (inactive),27 µM (inactive),51.1 µM (inactive),35.6 µM (inactive),75.2 µM (inactive),86.5 µM (inactive),38.1 µM (inactive),,28.2 µM (inactive)
CCOC(=O)C1=NN(c2ccccc2)C2=CC(C)=NN(C)C(=S)N21,> 100 µM (inactive),> 100 µM (inactive),> 100 µM (inactive),> 100 µM,> 100 µM (inactive),,> 100 µM (inactive),> 100 µM (inactive),> 100 µM (inactive),,,> 100 µM (inactive),> 100 µM (inactive),> 100 µM (inactive),> 100 µM (inactive),> 100 µM (inactive),> 100 µM (inactive),> 100 µM (inactive),> 100 µM (inactive),> 100 µM (inactive)
O=C(/N=N/c1cc(Cl)ccc1Cl)NNc1cc(Cl)ccc1Cl,,,18.6 µM (inactive),16.5 µM,19 µM (inactive),,16.7 µM (inactive),17.1 µM (inactive),> 10 µM (inactive),23.1 µM (inactive),> 10 µM (inactive),13.2 µM (inactive),16.8 µM (inactive),11.9 µM (inactive),,18.1 µM (inactive),16.7 µM (inactive),18.4 µM (inactive),12.7 µM (inactive),21.2 µM (inactive)
Cc1ccc(C(=O)N/N=C(\N=N\c2cccc(C)c2)c2ccc(N(CCC#N)CCC#N)cc2C)cc1,> 100 µM (inactive),95.3 µM (inactive),,> 100 µM,34.3 µM (inactive),,31.8 µM (inactive),89.5 µM (inactive),38.9 µM (inactive),,55.2 µM (inactive),,78.9 µM (inactive),49.9 µM (inactive),64.7 µM (inactive),> 100 µM (inactive),47 µM (inactive),67.5 µM (inactive),32.2 µM (inactive),55.1 µM (inactive)
Cc1cc(O)nc(NN2C(Cl)C(=O)C2c2c(O)ccc3ccccc23)n1 (stereo unspecified),36.2 µM (inactive),43.8 µM (inactive),17.3 µM (inactive),15.6 µM,38.5 µM (inactive),22.6 µM (inactive),23 µM (inactive),15.2 µM (inactive),16.3 µM (inactive),,13 µM (inactive),,13.2 µM (inactive),15.5 µM (inactive),21.9 µM (inactive),16.4 µM (inactive),21.9 µM (inactive),,15.2 µM (inactive),12 µM (inactive)
COc1ccc(C(=O)Cc2cc(OC)ccc2OC)cc1,> 100 µM (inactive),> 100 µM (inactive),> 100 µM (inactive),> 100 µM,> 100 µM (inactive),> 100 µM (inactive),,> 100 µM (inactive),> 100 µM (inactive),> 100 µM (inactive),> 100 µM (inactive),43.3 µM (inactive),> 100 µM (inactive),75.3 µM (inactive),> 100 µM (inactive),> 100 µM (inactive),> 100 µM (inactive),,> 100 µM (inactive),> 100 µM (inactive)
CC(=O)NNc1nc(C)c(C(=O)NNC(=O)C(=O)Nc2c(C)cccc2C(C)(C)C)s1,46.9 µM (inactive),> 100 µM (inactive),75.2 µM (inactive),59.7 µM,93.3 µM (inactive),83.4 µM (inactive),> 100 µM (inactive),> 100 µM (inactive),41.1 µM (inactive),,> 100 µM (inactive),20.9 µM (inactive),,45.9 µM (inactive),> 100 µM (inactive),> 100 µM (inactive),58.7 µM (inactive),,> 100 µM (inactive),48.2 µM (inactive)
C=C1CN=C(Nc2ccc(Cl)cc2)S1,> 100 µM (inactive),> 100 µM (inactive),> 100 µM (inactive),> 100 µM,> 100 µM (inactive),,66.7 µM (inactive),> 100 µM (inactive),> 10 µM (inactive),> 100 µM (inactive),,,> 100 µM (inactive),83.8 µM (inactive),> 100 µM (inactive),> 100 µM (inactive),93.3 µM (inactive),45.6 µM (inactive),> 100 µM (inactive),52.8 µM (inactive)
O=C(O)C(CO)NC(=O)C1C(C(=O)O)C(c2ccccc2[N+](=O)[O-])C=C(c2ccco2)N1c1ccncc1 (stereo unspecified),3.26 µM (inactive),14.9 µM (inactive),1.67 µM (inactive),1.95 µM,2.04 µM (inactive),,1.73 µM (inactive),4.32 µM (inactive),2.44 µM (inactive),13.4 µM (inactive),14.5 µM (inactive),4.61 µM (inactive),6.28 µM (inactive),1.58 µM (inactive),1.84 µM (inactive),7.16 µM (inactive),2.34 µM (inactive),1.99 µM (inactive),4.49 µM (inactive),0.9 µM (active)
O=c1c2cccnc2ncn1CCCN1CCCCC1,> 100 µM (inactive),> 100 µM (inactive),> 100 µM (inactive),,> 100 µM (inactive),,> 100 µM (inactive),> 100 µM (inactive),> 100 µM (inactive),> 100 µM (inactive),> 100 µM (inactive),> 100 µM (inactive),> 100 µM (inactive),,> 100 µM (inactive),> 100 µM (inactive),> 100 µM (inactive),,> 100 µM (inactive),> 100 µM (inactive)
Cc1nnc(N)s/c1=N/O,> 100 µM (inactive),> 100 µM (inactive),> 100 µM (inactive),> 100 µM,> 100 µM (inactive),,> 100 µM (inactive),> 100 µM (inactive),> 100 µM (inactive),> 100 µM (inactive),> 100 µM (inactive),> 100 µM (inactive),> 100 µM (inactive),> 100 µM (inactive),> 100 µM (inactive),> 100 µM (inactive),> 100 µM (inactive),> 100 µM (inactive),56.9 µM (inactive),
CCCCCCCCCC[C@@H](O)[C@@H]1CC[C@@H]([C@@H]2CC[C@@H]([C@@H](O)CCCCCCCCCCC(O)CC3=CC(C)OC3=O)O2)O1 (stereo partly specified),2.53 µM (inactive),3.03 µM (inactive),0.551 µM (active),5.89 µM,> 10 µM (inactive),,3.53 µM (inactive),> 10 µM (inactive),1.26 µM (inactive),1.81 µM (inactive),0.173 µM (active),0.177 µM (active),,1.26 µM (inactive),> 10 µM (inactive),,,1.36 µM (inactive),0.333 µM (active),1.4 µM (inactive)
CC(C(=O)OCc1ccccc1)N(Cc1ccccc1)Cc1ccccc1 (stereo unspecified),> 100 µM (inactive),> 100 µM (inactive),> 100 µM (inactive),> 100 µM,> 100 µM (inactive),> 100 µM (inactive),58.7 µM (inactive),> 100 µM (inactive),33 µM (inactive),51.2 µM (inactive),,29.2 µM (inactive),> 100 µM (inactive),35.9 µM (inactive),> 100 µM (inactive),45.2 µM (inactive),98.4 µM (inactive),,43.1 µM (inactive),31 µM (inactive)
